Measurements published in patent publication US7070965B1, “Small molecule anticancer compounds and related production process” (priority 1998, dated 2006).
Values after ≈ are worked out from the molar mass of the structure shown.

Tests used:
Assay type in all cases: cell-based
[1] = system: SNU-1 human gastric carcinoma; assay: Cytotoxicity ID50/ID75/ID90, viability assessment; conditions: 48 hours
Experimental: (§1) PBLs, K-562 and SNU-1 cells in suspension culture were seeded in 96-well microplates at a density of 5×10^4 cells/well for K-562 and SNU-1, and 1×10^5 cells/well for PBLs. iso-C15 were diluted with medium to provide different concentrations (0, 1.5, 3.0, 6.0, 15.0, 30.0, and 60.0 μg/ml). Both untreated and solvent (NaOH and Tween 80) treated cells served as controls. After incubation for 48 hours at 37° C., cells were collected directly from the wells for viability assessment.
(§2) The ID50, ID75 and ID90 were determined in duplicate in every set of experiments, and each experiment was repeated three times under identical conditions. ID50, ID75 and ID90 were defined as the concentration of iso-C15 required to kill 50, 75 or 90%, respectively, of cells (compared with that in untreated cells) and computed using CalcuSyn for Windows software (Biosoft, Cambridge UK) based on Median Effect method by Dr. T. C. Chou.

K-562 human leukemia = assay: Cytotoxicity ID50/ID75/ID90, viability assessment; conditions: 48 hours
Experimental: as §1, §2

[2] = system: MCF-7 human breast adenocarcinoma; assay: Cytotoxicity ID50/ID75/ID90, trypan blue dye exclusion; conditions: 48 hours
Experimental: (§3) All cells in adherent culture were initiated at 5×10^4 cells/well in 96-well microplates and treated immediately with iso-C15 at different concentrations (0, 1.5, 3.0, 6.0, 15.0, 30.0, and 60.0 μg/ml) diluted with medium. Both untreated and solvent (NaOH and Tween 80) treated cells served as controls. The treated cells were incubated for 48 hours at 37° C. After incubation, the supernatants were removed and the cells were trypsinized and collected prior to viability assessment by trypan blue dye exclusion.
as §2

[3] = system: H1688 human small cell lung carcinoma; assay: as above; conditions: 48 hours
Experimental: as §3, §2

[4] = system: SNU-423 human hepatocellular carcinoma cells; assay: Western blot analysis of caspase target proteins Lamin B and RB; conditions: 1% iso-C15 (60 μg/ml)
Experimental: (§4) For Western blot assay, each cell pellet collected from 1% iso-C15 or control treated cultures was lysed in 150 μl lysis buffer with 0.5% NP-40, 0.5% deoxycholic acid and 1 mM PMSF. The cell lysates were mixed with equal volume 2× Laemmli buffer and boiled for 5 min before loaded into gel wells. Proteins were resolved in an 8% SDS-PAGE gel and transferred to nitrocellulose filter membrane. The filters were blocked with PBS-T (PBS with 0.1% Tween 20) containing 5% nonfat dry milk (Bio-Rad, Richmond, Calif.) for 1 hr and then incubated for 1 hr with proper dilution of one primary antibody in PBS-T containing 2% nonfat dry milk. The filters then were washed in PBS-T 5 min for 6 times and incubated with a 1:8000 dilution of HRP secondary antibody in PBS-T with 2% nonfat dry milk for 1 hr. After 6 washes in PBS-T, immune complexes were visualized on film using the ECL nonradioactive detection system (Amersham, Arlington Heights, Ill.). After detected with one primary antibody, the filter was striped with 0.1 mM Tris pH 7.5 and 0.05 mM β-metacapenanol at 50° C. for 30 min. The filters were washed in 300 ml PBS-T buffer for 10 min twice before blocking with PBS-T with 5% nonfat dry milk. The membranes were then reprobed with monoclonal mouse anti-human β-actin to determine the equal loading of protein for each well.
(§5) The cleavages of Lamin B, a caspase target protein, in apoptotic SNU-423 human hepatocellular carcinoma cells and K562 human leukemia cells were shown in FIGS. 14 and 15, respectively. The cells were treated with 1% control solution and 1% iso-C15 for the length of time indicated. Cell lysates were separated by SDS-PAGE. Lamin B was detected by immunoblotting with a monoclonal antibody. […] The Western blot analysis of RB protein in SNU-423 and K562 cells were shown in FIGS. 16 and 17, respectively.

[5] = system: K562 human leukemia cells; assay: as above; conditions: 1% iso-C15 (60 μg/ml)
Experimental: as §4, §5

[6] = system: K562 human leukemia cells; assay: Flow cytometry annexin V / PI apoptosis detection; conditions: 30 μg/ml, 24 hours
Experimental: (§6) Human cancer cell lines DU-145 (prostate cancer), K562 (leukemia), HCT116 (colon cancer), H1688 (lung cancer), SUN423 (hepatocarcinoma), MCF7 (breast cancer), CRL-1687 (pancreatic cancer), and SUN-1 (gastric cancer) were obtained from American Type Culture Collection (ATCC). 30 ml blood was collected from a health person and normal peripheral mononuclear cells were separated by Ficoll separation solution (Sigma). All cells were maintained in RPMI 1640, DMEM, or McCoy medium supplemented with 10% FCS, […] streptomycin and 100 u/ml penicillin. Normal human peripheral mononuclear cells, K562 and SUN-1 were suspended cells. After spinning at 1,500 RPM for 5 min, supernatants were discharged and cells were resuspended and expended in fresh medium. The other tumor cell lines were adherent cells and were dispersed with 0.05% trypsin/0.01% EDTA (Irvine Scientific, CA) for expansion. Cells were seeded in T75 flasks at 2×10^6 cells/flask in culture medium supplemented with 10% fetal bovine serum and incubated overnight at 37° C. with 5% CO2. The adherent cells attached to the plate were striped with disposable cell scrapers (Fisher Scientific) after treated either with 1% iso-C15, anteiso-C15 or control solution for 1, 2, 4, 8 and 24 hours and then combined with respective float cells. Cells were then prepared for flow cytometry analysis, in situ cell death detection, DNA fragmentation and Western blot assay followed the preparation methods for each assay. Cell pellets treated for 2 and 4 hr with either iso-C15 or control were also stored at −70° C. for future studies of gene regulation.
(§7) A flow cytometer (FACScan) with Consort 30 software for gating analysis (Becton Dickinson, San Jose, Calif.) was used. The Apoptosis Detection kit (R&D Systems) was used to quantitatively determine the percentage of cells undergoing apoptosis by virtue of their ability to bind annexin V and exclude propidium iodide (PI). Cells were washed in cold PBS twice and resuspended in binding buffer. Fluorescent-labeled annexin V and PI were added to the cells. The cells undergoing apoptosis, expressing phosphotidyiserine on the outer leaflet of cell membranes, would bind annexin V. The cells in later stage of apoptosis or necrosis, with a compromised cell membrane, would allow PI to bind to the cellular DNA. The resulting cells were immediately analyzed by flow cytometer equipped with a single laser emitting excitation light at 488 nm. The annexin V and PI generated signals can be detected in signal detector FL1 and FL2, respectively. […]

normal human PBLs = assay: Flow cytometry annexin V / PI apoptosis detection; conditions: 60 μg/ml, 24 hours
Experimental: as §6, §7

CC(C)CCCCCCCCCCCC(=O)O [iso-C15, 13-methyltetradecanoic acid]
ID75 [1]: 47.43 ± 4.95 µg/mL (≈ 196 µM)
ID90 [1]: 80.49 ± 10.03 µg/mL (≈ 332 µM)
ID75 (K-562 human leukemia): 22.27 ± 4.60 µg/mL (≈ 91.9 µM)
ID90 (K-562 human leukemia): 43.57 ± 6.71 µg/mL (≈ 180 µM)
ID75 [2]: 15.99 ± 1.28 µg/mL (≈ 66 µM)
ID90 [2]: 25.49 ± 1.68 µg/mL (≈ 105 µM)
ID75 [3]: 35.03 ± 3.59 µg/mL (≈ 145 µM)
ID90 [3]: 61.37 ± 8.06 µg/mL (≈ 253 µM)
Lamin B cleavage [4]: cleaved 45 kDa and 32 kDa products
RB hypophosphorylation and cleavage [4]: induced the change of hyperphosphorylated RB (pRB120/hyper) to hypophosphorylated form (pRB115/hypo)
Lamin B cleavage [5]: cleaved 45 kDa products
RB hypophosphorylation and cleavage [5]: induced the change of hyperphosphorylated RB (pRB120/hyper) to hypophosphorylated form (pRB115/hypo)
FL1/FL2 pattern (annexin V / PI), apoptosis [6]: the majority of the cells were undergoing apoptosis
FL1/FL2 pattern (annexin V / PI), effect on normal lymphocytes (normal human PBLs): no significant effects
